Measured values taken from ChEMBL document CHEMBL1148480, “Structure-activity studies of orexin a and orexin B at the human orexin 1 and orexin 2 receptors led to orexin 2 receptor selective and orexin 1 receptor preferring ligands” (J Med Chem, 2004).
Residues, ends and D or L forms follow the SMILES beside them.

Assays:
Orexin receptor type 2 = target: T1, Orexin receptor type 2 (Homo sapiens, UniProt O43614); assay: Effective agonist concentration to the human Orexin receptor type 2 was determined using the Xlfit program; assay type: functional
T1 sequence (O43614 whole entry): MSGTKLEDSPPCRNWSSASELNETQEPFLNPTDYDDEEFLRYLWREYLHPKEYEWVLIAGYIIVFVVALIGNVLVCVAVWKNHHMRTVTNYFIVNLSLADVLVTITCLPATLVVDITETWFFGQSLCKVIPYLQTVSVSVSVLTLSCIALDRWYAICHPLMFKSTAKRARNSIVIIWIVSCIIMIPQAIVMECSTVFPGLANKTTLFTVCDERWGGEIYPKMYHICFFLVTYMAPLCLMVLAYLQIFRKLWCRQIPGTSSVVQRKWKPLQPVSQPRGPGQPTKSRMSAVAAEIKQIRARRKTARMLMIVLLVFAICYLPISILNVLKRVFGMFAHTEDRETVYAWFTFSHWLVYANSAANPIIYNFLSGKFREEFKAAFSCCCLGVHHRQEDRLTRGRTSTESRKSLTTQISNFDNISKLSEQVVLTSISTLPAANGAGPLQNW

[1] = target: T2, Orexin/Hypocretin receptor type 1 (Homo sapiens, UniProt O43613); assay: Effective agonist concentration to human orexin receptor type 1 determined using the Xlfit program; assay type: functional
T2 sequence (O43613 whole entry): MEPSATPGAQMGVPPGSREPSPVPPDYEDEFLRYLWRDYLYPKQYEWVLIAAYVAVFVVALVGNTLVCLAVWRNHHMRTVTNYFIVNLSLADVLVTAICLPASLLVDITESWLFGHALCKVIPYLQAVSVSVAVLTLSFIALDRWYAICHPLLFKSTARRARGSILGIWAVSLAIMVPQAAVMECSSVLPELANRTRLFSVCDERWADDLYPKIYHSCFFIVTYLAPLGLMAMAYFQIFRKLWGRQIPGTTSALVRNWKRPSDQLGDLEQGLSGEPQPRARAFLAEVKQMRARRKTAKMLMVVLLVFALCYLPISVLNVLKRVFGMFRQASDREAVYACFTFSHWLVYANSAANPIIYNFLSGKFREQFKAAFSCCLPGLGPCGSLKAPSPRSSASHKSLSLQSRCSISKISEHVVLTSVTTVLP

EC50 (Orexin receptor type 2) | EC50 [1] | Compound
0.32 µM | 2.18 µM | CC[C@H](C)[C@H](NC(=O)CNC(=O)[C@H](C)NC(=O)[C@H](C)NC(=O)[C@H](Cc1cnc[nH]1)NC(=O)[C@H](C)NC(=O)CNC(=O)[C@H](CO)NC(=O)[C@H](C)NC(=O)[C@H](CCC(N)=O)NC(=O)[C@H](CC(C)C)NC(=O)[C@H](CC(C)C)NC(=O)[C@H](CCCNC(=N)N)NC(=O)[C@H](CCC(N)=O)NC(=O)[C@H](CC(C)C)NC(=O)[C@H](CCCNC(=N)N)NC(=O)CNC(=O)[C@H](CCC(N)=O)NC(=O)[C@H](CC(C)C)NC(=O)CN)C(=O)N[C@@H](CC(C)C)C(=O)N[C@H](C(=O)N[C@@H](CCSC)C(=O)O)[C@@H](C)O (stereo in doubt; form 2)
4.4 µM | > 1000 µM | CC[C@H](C)[C@H](NC(=O)CNC(=O)[C@H](C)NC(=O)[C@@H]1CCCN1C(=O)[C@H](Cc1cnc[nH]1)NC(=O)[C@H](CC(N)=O)NC(=O)CNC(=O)[C@H](CO)NC(=O)[C@H](C)NC(=O)[C@H](CCC(N)=O)NC(=O)[C@H](CC(C)C)NC(=O)[C@H](CC(C)C)NC(=O)[C@H](CCCNC(=N)N)NC(=O)[C@H](CCC(N)=O)NC(=O)[C@H](CC(C)C)NC(=O)[C@H](CCCNC(=N)N)NC(=O)CNC(=O)[C@H](CCC(N)=O)NC(=O)[C@H](CC(C)C)NC(=O)CN)C(=O)N[C@@H](CC(C)C)C(=O)N[C@H](C(=O)N[C@@H](CCSC)C(=O)O)[C@@H](C)O (H-GLQGRLQRLLQASGNHPAGILTM-OH)
> 1000 µM | > 1000 µM | CC[C@H](C)[C@H](NC(=O)CNC(=O)[C@H](C)NC(=O)[C@H](C)NC(=O)[C@H](Cc1cnc[nH]1)NC(=O)[C@@H](N)CC(N)=O)C(=O)N[C@@H](CC(C)C)C(=O)N[C@H](C(=O)N[C@@H](CC(C)C)C(=O)O)[C@@H](C)O (H-NHAAGILTL-OH)
> 1000 µM | > 1000 µM | CSCC[C@H](NC(=O)[C@@H](NC(=O)[C@H](CC(C)C)NC(=O)[C@@H]1CCCN1C(=O)CNC(=O)[C@H](C)NC(=O)[C@H](C)NC(=O)[C@H](Cc1cnc[nH]1)NC(=O)[C@H](CC(N)=O)NC(=O)CNC(=O)[C@H](CO)NC(=O)[C@H](C)NC(=O)[C@H](CCC(N)=O)NC(=O)[C@H](CC(C)C)NC(=O)[C@H](CC(C)C)NC(=O)[C@H](CCCNC(=N)N)NC(=O)[C@H](CCC(N)=O)NC(=O)[C@H](CC(C)C)NC(=O)[C@H](CCCNC(=N)N)NC(=O)CNC(=O)[C@H](CCC(N)=O)NC(=O)[C@H](CC(C)C)NC(=O)CN)[C@@H](C)O)C(=O)O (H-GLQGRLQRLLQASGNHAAGPLTM-OH)
0.29 µM | 0.68 µM | CC[C@H](C)[C@H](NC(=O)CNC(=O)[C@H](C)NC(=O)[C@H](C)NC(=O)[C@H](Cc1cnc[nH]1)NC(=O)[C@H](CC(N)=O)NC(=O)CNC(=O)[C@H](C)NC(=O)CNC(=O)[C@H](Cc1cnc[nH]1)NC(=O)[C@H](CC(C)C)NC(=O)[C@H](CC(C)C)NC(=O)[C@H](CCC(=O)O)NC(=O)[C@H](Cc1ccc(O)cc1)NC(=O)[C@H](CC(C)C)NC(=O)[C@H](CCCNC(=N)N)NC(=O)[C@H](CS)NC(=O)[C@H](CO)NC(=O)[C@H](CS)NC(=O)[C@@H](NC(=O)[C@H](CCCCN)NC(=O)[C@H](CCC(N)=O)NC(=O)[C@@H](N)CCCNC(=N)N)[C@@H](C)O)C(=O)N[C@@H](CC(C)C)C(=O)N[C@H](C(=O)N[C@@H](CC(C)C)C(=O)O)[C@@H](C)O (H-RQKTCSCRLYELLHGAGNHAAGILTL-OH)
> 1000 µM | > 1000 µM | CC(C)C[C@H](NC(=O)CNC(=O)[C@@H]1CCCN1C(=O)[C@@H]1CCCN1C(=O)CNC(=O)[C@H](CO)NC(=O)[C@@H](N)CCCN=C(N)N)C(=O)N[C@@H](CCC(N)=O)C(=O)NCC(=O)N[C@@H](CCCN=C(N)N)C(=O)O (H-RSGPPGLQGR-OH)
0.84 µM | 1.89 µM | CC[C@H](C)[C@H](NC(=O)CNC(=O)[C@H](C)NC(=O)[C@H](C)NC(=O)[C@@H]1CCCN1C(=O)[C@H](CC(N)=O)NC(=O)CNC(=O)[C@H](CO)NC(=O)[C@H](C)NC(=O)[C@H](CCC(N)=O)NC(=O)[C@H](CC(C)C)NC(=O)[C@H](CC(C)C)NC(=O)[C@H](CCCNC(=N)N)NC(=O)[C@H](CCC(N)=O)NC(=O)[C@H](CC(C)C)NC(=O)[C@H](CCCNC(=N)N)NC(=O)CNC(=O)[C@H](CCC(N)=O)NC(=O)[C@H](CC(C)C)NC(=O)CN)C(=O)N[C@@H](CC(C)C)C(=O)N[C@H](C(=O)N[C@@H](CCSC)C(=O)O)[C@@H](C)O (H-GLQGRLQRLLQASGNPAAGILTM-OH)
0.57 µM | > 1000 µM | CC[C@H](C)[C@H](NC(=O)CNC(=O)[C@H](C)NC(=O)[C@H](C)NC(=O)[C@H](Cc1cnc[nH]1)NC(=O)[C@H](CC(N)=O)NC(=O)CNC(=O)[C@H](CO)NC(=O)[C@H](C)NC(=O)[C@H](CCC(N)=O)NC(=O)[C@H](CC(C)C)NC(=O)[C@H](CC(C)C)NC(=O)[C@H](CCCNC(=N)N)NC(=O)[C@H](CCC(N)=O)NC(=O)[C@H](CC(C)C)NC(=O)[C@@H](N)CCCNC(=N)N)C(=O)N[C@@H](CC(C)C)C(=O)N[C@H](C(=O)N[C@@H](CCSC)C(=O)O)[C@@H](C)O (H-RLQRLLQASGNHAAGILTM-OH)
0.57 µM | 3.16 µM | CC[C@H](C)[C@H](NC(=O)CNC(=O)[C@H](C)NC(=O)[C@H](C)NC(=O)[C@H](Cc1cnc[nH]1)NC(=O)[C@H](CC(N)=O)NC(=O)CNC(=O)[C@H](CO)NC(=O)[C@H](C)NC(=O)[C@H](CCC(N)=O)NC(=O)[C@H](CC(C)C)NC(=O)[C@H](CC(C)C)NC(=O)[C@H](CCCNC(=N)N)NC(=O)[C@H](CCC(N)=O)NC(=O)[C@H](CC(C)C)NC(=O)[C@H](CCCNC(=N)N)NC(=O)CNC(=O)[C@H](CCC(N)=O)NC(=O)[C@H](CC(C)C)NC(=O)[C@H](C)N)C(=O)N[C@@H](CC(C)C)C(=O)N[C@H](C(=O)N[C@@H](CCSC)C(=O)O)[C@@H](C)O (H-ALQGRLQRLLQASGNHAAGILTM-OH)
> 1000 µM | > 1000 µM | CC(C)C[C@H](NC(=O)CNC(=O)[C@@H]1CCCN1C(=O)[C@@H]1CCCN1C(=O)CNC(=O)[C@H](CO)NC(=O)[C@@H](N)CCCN=C(N)N)C(=O)N[C@@H](CCC(N)=O)C(=O)NCC(=O)N[C@@H](CCCN=C(N)N)C(=O)N[C@@H](CC(C)C)C(=O)N[C@@H](CCC(N)=O)C(=O)N[C@@H](CCCN=C(N)N)C(=O)N[C@@H](CC(C)C)C(=O)N[C@@H](CC(C)C)C(=O)N[C@@H](CCC(N)=O)C(=O)O (H-RSGPPGLQGRLQRLLQ-OH)
3.6 µM | > 1000 µM | CC[C@H](C)[C@H](NC(=O)CNC(=O)[C@@H]1CCCN1C(=O)[C@H](C)NC(=O)[C@H](Cc1cnc[nH]1)NC(=O)[C@H](CC(N)=O)NC(=O)CNC(=O)[C@H](CO)NC(=O)[C@H](C)NC(=O)[C@H](CCC(N)=O)NC(=O)[C@H](CC(C)C)NC(=O)[C@H](CC(C)C)NC(=O)[C@H](CCCNC(=N)N)NC(=O)[C@H](CCC(N)=O)NC(=O)[C@H](CC(C)C)NC(=O)[C@H](CCCNC(=N)N)NC(=O)CNC(=O)[C@H](CCC(N)=O)NC(=O)[C@H](CC(C)C)NC(=O)CN)C(=O)N[C@@H](CC(C)C)C(=O)N[C@H](C(=O)N[C@@H](CCSC)C(=O)O)[C@@H](C)O (H-GLQGRLQRLLQASGNHAPGILTM-OH)
> 1000 µM | > 1000 µM | CC[C@H](C)[C@H](NC(=O)CNC(=O)[C@H](C)NC(=O)[C@H](C)NC(=O)[C@H](Cc1c[nH]cn1)NC(=O)[C@H](CC(N)=O)NC(=O)CNC(=O)[C@@H](N)CO)C(=O)N[C@@H](CC(C)C)C(=O)N[C@H](C(=O)N[C@@H](CCSC)C(=O)O)[C@@H](C)O (H-SGNHAAGILTM-OH)
15.6 µM | > 1000 µM | CC[C@H](C)[C@H](NC(=O)CNC(=O)[C@H](C)NC(=O)[C@H](C)NC(=O)[C@H](Cc1cnc[nH]1)NC(=O)[C@H](CC(N)=O)NC(=O)CNC(=O)[C@H](CO)NC(=O)[C@H](C)NC(=O)[C@H](CCC(N)=O)NC(=O)[C@H](CC(C)C)NC(=O)[C@H](CC(C)C)NC(=O)[C@H](CCCNC(=N)N)NC(=O)[C@H](CCC(N)=O)NC(=O)[C@H](CC(C)C)NC(=O)[C@H](CCCNC(=N)N)NC(=O)CNC(=O)[C@H](CCC(N)=O)NC(=O)[C@H](CC(C)C)NC(=O)CN)C(=O)N[C@@H](C)C(=O)N[C@H](C(=O)N[C@@H](CCSC)C(=O)O)[C@@H](C)O (H-GLQGRLQRLLQASGNHAAGIATM-OH)
0.45 µM | 1.03 µM | CC[C@H](C)[C@H](NC(=O)CNC(=O)[C@H](C)NC(=O)[C@H](C)NC(=O)[C@H](Cc1cnc[nH]1)NC(=O)[C@H](CC(N)=O)NC(=O)CNC(=O)[C@H](C)NC(=O)CNC(=O)[C@H](Cc1cnc[nH]1)NC(=O)[C@H](CC(C)C)NC(=O)[C@H](CC(C)C)NC(=O)[C@H](CCC(=O)O)NC(=O)[C@H](Cc1ccc(O)cc1)NC(=O)[C@H](CC(C)C)NC(=O)[C@H](CCCNC(=N)N)NC(=O)[C@H](CS)NC(=O)[C@@H](N)CO)C(=O)N[C@@H](CC(C)C)C(=O)N[C@H](C(=O)N[C@@H](CC(C)C)C(=O)O)[C@@H](C)O (H-SCRLYELLHGAGNHAAGILTL-OH)
